Assay results as given in patent US12281122B1, “PI3K inhibitors” (Cogent Biosciences, Inc., priority 2023, dated 2025).

Tests used:
[1] = tested on: T47D (PI3Kα-H1047R) cell line; assay: HTRF phospho-AKT(S473) cell assay in T47D cells; assay type: cell-based, human; conditions: Homo sapiens, 2 hours compound incubation
How it was run: (§1)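 T47D: RPMI + 10% FBS + 0.2 units/mL insulin, top 5 μM. SKBR3: McCoy's 5A + 10% FBS, top 10 μM, 70 ng/ml PDGF-BB last 15 min. Both: 12-pt 1:3, 2 h, 37° C, max 0.5% DMSO; HTRF pAKT(S473); IC50.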

[2] = tested on: SKBR3 (PI3Kα-Wild Type) cell line; assay: HTRF phospho-AKT(S473) cell assay in SKBR3 cells; assay type: cell-based, human; conditions: Homo sapiens, SK-BR-3, 2 hours compound incubation, PDGF-BB stimulated
How it was run: as §1

[3] = T47D (PI3Kα-H1047R) cells, HTRF phospho-AKT(S473)
[4] = SKBR3 (PI3Kα-Wild Type) cells, HTRF phospho-AKT(S473)
[5] = HTRF phospho-AKT(S473), T47D (PI3Kα-H1047R) cells
[6] = HTRF phospho-AKT(S473), SKBR3 (PI3Kα-Wild Type) cells

Row | Compound | IC50 [1, 3] [nM] | IC50 [2, 4] [nM] | IC50 [1, 5] [nM] | IC50 [2, 6] [nM] | also measured
1 | Cc1cc([C@@H](C)Nc2ccc(Cl)nc2C(=O)NS(C)(=O)=O)c2nc(N3CCN(c4ccc(C#N)cc4)CC3)n(C)c(=O)c2c1 [Compound 190, (R)-6-chloro-3-((1-(2-(4-(4-cyanophenyl)piperazin-1-yl)-3,6-dimethyl-4-oxo-3,4-dihydroquinazolin-8-yl)ethyl)amino)-N-(methylsulfonyl) picolinamide] | < 250 | 1000 to 5000 | – | – | –
2 | C[C@@H](Nc1ccc(Cl)nc1C(=O)NS(C)(=O)=O)c1cc(Cl)cc2c(=O)n(C)c(N3C[C@@H]4[C@H](C3)[C@H]4c3ccn(C)n3)nc12 [Compound 451, 6-chloro-3-(((R)-1-(6-chloro-3-methyl-2-((1R,5S,6R)-6-(1-methyl-1H-pyrazol-3-yl)-3-azabicyclo[3.1.0]hexan-3-yl)-4-oxo-3,4-dihydroquinazolin-8-yl)ethyl)amino)-N-(methylsulfonyl) picolinamide] | – | – | < 250 | 1000 to 5000 | –
3 | Cc1cc([C@@H](C)Nc2ccc(Cl)nc2C(=O)NS(C)(=O)=O)c2nc(N3CCC(c4cn[nH]c4)CC3)n(C)c(=O)c2c1 [Compound 167, (R)-3-((1-(2-(4-(1H-pyrazol-4-yl)piperidin-1-yl)-3,6-dimethyl-4-oxo-3,4-dihydroquinazolin-8-yl)ethyl)amino)-6-chloro-N-(methylsulfonyl) picolinamide] | < 250 | 1000 to 5000 | – | – | –
4 | C[C@@H](Nc1ccc(Cl)nc1C(=O)NS(C)(=O)=O)c1cc(Cl)cc2c(=O)n(C)c(N3CCC(c4nn(C)cc4F)CC3)nc12 [Compound 431, (R)-6-chloro-3-((1-(6-chloro-2-(4-(4-fluoro-1-methyl-1H-pyrazol-3-yl)piperidin-1-yl)-3-methyl-4-oxo-3,4-dihydroquinazolin-8-yl)ethyl)amino)-N-(methylsulfonyl) picolinamide] | 250 to 500 | 1000 to 5000 | – | – | –
5 | Cc1cc([C@@H](C)Nc2ccc(Cl)nc2C(=O)NS(C)(=O)=O)c2nc(N3Cc4cn(C(F)F)nc4C3)n(C)c(=O)c2c1 [Compound 176, (R)-6-chloro-3-((1-(2-(2-(difluoromethyl)-2,6-dihydropyrrolo[3,4-c]pyrazol-5(4H)-yl)-3,6-dimethyl-4-oxo-3,4-dihydroquinazolin-8-yl)ethyl)amino)-N-(methylsulfonyl) picolinamide] | < 250 | 1000 to 5000 | – | – | –
6 | Cc1cc([C@@H](C)Nc2ccc(Cl)nc2C(=O)NS(C)(=O)=O)c2nc(N3C[C@@H]4[C@H](C3)[C@H]4c3cncc(C)n3)n(C)c(=O)c2c1 [Compound 418, 6-chloro-3-(((R)-1-(3,6-dimethyl-2-((1R,5S,6R)-6-(6-methylpyrazin-2-yl)-3-azabicyclo[3.1.0]hexan-3-yl)-4-oxo-3,4-dihydroquinazolin-8-yl)ethyl)amino)-N-(methylsulfonyl) picolinamide] | < 250 | 1000 to 5000 | – | – | –
7 | Cc1cc([C@@H](C)Nc2ccc(Cl)nc2C(=O)NS(C)(=O)=O)c2nc(N3C[C@@H]4[C@H](C3)[C@H]4c3ccn(C(F)F)n3)n(C)c(=O)c2c1 [Compound 470, 6-chloro-3-(((R)-1-(2-((1R,5S,6R)-6-(1-(difluoromethyl)-1H-pyrazol-3-yl)-3-azabicyclo[3.1.0]hexan-3-yl)-3,6-dimethyl-4-oxo-3,4-dihydroquinazolin-8-yl)ethyl)amino)-N-(methylsulfonyl) picolinamide] | – | – | < 250 | 1000 to 5000 | –
8 | [2H]C([2H])([2H])n1cc(-c2ccc(-c3nc4c([C@@H](C)Nc5ccc(Cl)nc5C(=O)NS(C)(=O)=O)cc(C)cc4c(=O)n3C)cn2)cn1 [Compound 855, (R)-6-chloro-3-((1-(3,6-dimethyl-2-(6-(1-(methyl-d3)-1H-pyrazol-4-yl)pyridin-3-yl)-4-oxo-3,4-dihydroquinazolin-8-yl)ethyl)amino)-N-(methylsulfonyl) picolinamide] | – | – | – | – | IC50 ([1]; T47D (PI3Kα-H1047R) cell line, phospho-AKT(S473) HTRF): < 250 nM; IC50 ([2]; SKBR3 (PI3Kα-Wild Type) cell line, phospho-AKT(S473) HTRF): 1000 to 5000 nM
9 | Cc1cc([C@@H](C)Nc2ccc(Cl)nc2C(=O)NS(C)(=O)=O)c2nc(N3CCN(c4cnc(C)nc4)CC3)n(C)c(=O)c2c1 [Compound 257, (R)-6-chloro-3-((1-(3,6-dimethyl-2-(4-(2-methylpyrimidin-5-yl)piperazin-1-yl)-4-oxo-3,4-dihydroquinazolin-8-yl)ethyl)amino)-N-(methylsulfonyl) picolinamide] | < 250 | 1000 to 5000 | – | – | –
10 | Cc1cc([C@@H](C)Nc2ccc(Cl)nc2C(=O)NS(C)(=O)=O)c2nc(N3CCC[C@H](c4conc4C)C3)n(C)c(=O)c2c1 (relative stereo) [Compound 306, 6-chloro-3-(((R)-1-(3,6-dimethyl-2-((R*)-3-(3-methylisoxazol-4-yl)piperidin-1-yl)-4-oxo-3,4-dihydroquinazolin-8-yl)ethyl)amino)-N-(methylsulfonyl) picolinamide] | < 250 | 1000 to 5000 | – | – | –

Continued, in another order:

Row | IC50 [1, 3] [nM] | IC50 [2, 4] [nM] | IC50 [1, 5] [nM] | IC50 [2, 6] [nM] | Compound | also measured
11 | – | – | 250 to 500 | 1000 to 5000 | Cc1cc([C@@H](C)Nc2ccc(Cl)nc2C(=O)NS(C)(=O)=O)c2nc(-c3ccc4c(c3)ncn4C)n(C)c(=O)c2c1 [Compound 833, (R)-6-chloro-3-((1-(3,6-dimethyl-2-(1-methyl-1H-benzo[d]imidazol-5-yl)-4-oxo-3,4-dihydroquinazolin-8-yl)ethyl)amino)-N-(methylsulfonyl) picolinamide] | –
12 | – | – | < 250 | 1000 to 5000 | Cc1cc([C@@H](C)Nc2ccc(Cl)nc2C(=O)NS(C)(=O)=O)c2nc(N3CCC(c4ncc(C)c(C)n4)CC3)n(C)c(=O)c2c1 [Compound 544, (R)-6-chloro-3-((1-(2-(4-(4,5-dimethylpyrimidin-2-yl)piperidin-1-yl)-3,6-dimethyl-4-oxo-3,4-dihydroquinazolin-8-yl)ethyl)amino)-N-(methylsulfonyl) picolinamide] | –
13 | – | – | 250 to 500 | ≥ 5000 | COc1ccc(N2C[C@@H]3C[C@H]2CN3c2nc3c([C@@H](C)Nc4ccc(Cl)nc4C(=O)NS(C)(=O)=O)cc(C)cc3c(=O)n2C)cn1 [Compound 636, 6-chloro-3-(((R)-1-(2-((1S,4S)-5-(6-methoxypyridin-3-yl)-2,5-diazabicyclo [2.2.1]heptan-2-yl)-3,6-dimethyl-4-oxo-3,4-dihydroquinazolin-8-yl)ethyl)amino)-N-(methylsulfonyl) picolinamide] | –
14 | – | – | < 250 | 1000 to 5000 | Cc1cc([C@@H](C)Nc2ccc(Cl)nc2C(=O)NS(C)(=O)=O)c2nc(-c3ccc4nn(CCO)cc4c3)n(C)c(=O)c2c1 [Compound 797, (R)-6-chloro-3-((1-(2-(2-(2-hydroxyethyl)-2H-indazol-5-yl)-3,6-dimethyl-4-oxo-3,4-dihydroquinazolin-8-yl)ethyl)amino)-N-(methylsulfonyl) picolinamide] | –
15 | – | – | 250 to 500 | ≥ 5000 | Cc1cc([C@@H](C)Nc2ccc(Cl)nc2C(=O)NS(C)(=O)=O)c2nc(N3CC[C@H](Oc4ccc(F)cc4)C3)n(C)c(=O)c2c1 (relative stereo) [Compound 691, 6-chloro-3-(((R)-1-(2-((R*)-3-(4-fluorophenoxy)pyrrolidin-1-yl)-3,6-dimethyl-4-oxo-3,4-dihydroquinazolin-8-yl)ethyl)amino)-N-(methylsulfonyl) picolinamide] | –
16 | – | – | 250 to 500 | ≥ 5000 | Cc1cc([C@@H](C)Nc2ccc(Cl)nc2C(=O)NS(C)(=O)=O)c2nc(N3CCC(Oc4ccccn4)CC3)n(C)c(=O)c2c1 [Compound 694, (R)-6-chloro-3-((1-(3,6-dimethyl-4-oxo-2-(4-(pyridin-2-yloxy)piperidin-1-yl)-3,4-dihydroquinazolin-8-yl)ethyl)amino)-N-(methylsulfonyl) picolinamide] | –
17 | – | – | < 250 | ≥ 5000 | Cc1cc([C@@H](C)Nc2ccc(Cl)nc2C(=O)NS(C)(=O)=O)c2nc(-c3ccc(OCCN4CCOCC4)cc3)n(C)c(=O)c2c1 [Compound 793, (R)-6-chloro-3-((1-(3,6-dimethyl-2-(4-(2-morpholinoethoxy)phenyl)-4-oxo-3,4-dihydroquinazolin-8-yl)ethyl)amino)-N-(methylsulfonyl) picolinamide] | –
18 | – | – | 250 to 500 | 1000 to 5000 | COc1cnc(C2CCN(c3nc4c([C@@H](C)Nc5ccc(Cl)nc5C(=O)NS(C)(=O)=O)cc(C)cc4c(=O)n3C)CC2)nc1 [Compound 487, (R)-6-chloro-3-((1-(2-(4-(5-methoxypyrimidin-2-yl)piperidin-1-yl)-3,6-dimethyl-4-oxo-3,4-dihydroquinazolin-8-yl)ethyl)amino)-N-(methylsulfonyl) picolinamide] | –
19 | – | – | 250 to 500 | 1000 to 5000 | C[C@@H](Nc1ccc(Cl)nc1C(=O)NS(C)(=O)=O)c1cc(F)cc2c(=O)n(C)c(-c3ccc4nn(C)cc4c3)nc12 [Compound 805, (R)-6-chloro-3-((1-(6-fluoro-3-methyl-2-(2-methyl-2H-indazol-5-yl)-4-oxo-3,4-dihydroquinazolin-8-yl)ethyl)amino)-N-(methylsulfonyl) picolinamide] | –
20 | – | – | < 250 | 1000 to 5000 | [2H]C([2H])([2H])n1cc2cc(-c3nc4c([C@@H](C)Nc5ccc(Cl)nc5C(=O)NS(C)(=O)=O)cc(C)cc4c(=O)n3C)ccc2n1 [Compound 817, (R)-6-chloro-3-((1-(3,6-dimethyl-2-(2-(methyl-d3)-2H-indazol-5-yl)-4-oxo-3,4-dihydroquinazolin-8-yl)ethyl)amino)-N-(methylsulfonyl) picolinamide] | –
